{"source": "patent US20200393397A1", "about": "“DEVICE FOR PERFORMING ELECTRICAL MEASUREMENTS” (Mimetas B.V., priority 2018, published 2020)", "test_system": "Caco-2 tubules", "assay": "TEER measurement of Caco-2 tubules in 2-lane Organoplate during staurosporine exposure", "type": "cell-based, human", "method": "Day 0: Collagen-1 gel was injected into one of the channels (gel channel) of a 2-lane Organoplate. After curing of the gel, Caco-2 cells (Sigma, human colon carcinoma cells) in culture medium were seeded in the other channel (perfusion channel) and allowed to proliferate. Culture medium was refreshed daily. […] Following this protocol, 40 chips, comprising a gel channel and a perfusion channel separated by a phaseguide, were seeded with Caco-2 cells, meaning that 40 tubules were grown simultaneously in a single 2-lane Organoplate. The method of culturing cells in this system is similar to the one described by Trietsch et al (Nature Communications, volume 8, Article number: 262(2017), doi:10.1038/s41467-017-00259-3).\nA TEER measurement was performed daily at days 1 to 11. To this end, gold plated electrodes were inserted into the access wells of the gel and perfusion channel. For 5 to 10 seconds per chip, impedance spectra were recorded at frequencies ranging logarithmically from 10 Hz to 1 MHz.\nAt day 5, the 40 Caco-2 tubules were exposed to different concentrations of staurosporine (Sigma, S4400) for 12 hours."}
{"compound": "CN[C@@H]1C[C@H]2O[C@@](C)([C@@H]1OC)n1c3ccccc3c3c4c(c5c6ccccc6n2c5c31)C(=O)NC4", "note": "[staurosporine]", "values": [{"measurement": "effect on the TEER", "setting": "day 5, concentration of 47 nM, 12 hours exposure (FIG. 8)", "value": "an effect on the TEER can be observed"}, {"measurement": "effect on the TEER values", "setting": "day 5, exposure to different concentrations for 12 hours (FIG. 8)", "value": "concentration dependent effect"}]}
